The results in this text go back to PubChem BioAssay (NCI).

Some test systems named below: MOLT-4 leukemia; NCI-H23 lung; OVCAR-5 ovarian; LXFL 529 NSCLC; NCI-H226 lung; SF-539 CNS; RPMI-8226 leukemia; KM20L2 colon; M19-MEL melanoma; HL-60(TB) leukemia; PC-3 prostate; NCI/ADR-RES ovarian; DU-145 prostate; MDA-MB-435.
Common to all, as to assay: NCI tumour cell line growth inhibition, 48 h

The structures appear in SMILES notation.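 Protocol summary: plate cells (96-well), add compound at 5 concentrations, incubate 48 h, interpolate endpoints linearly. At the TGI there is no net growth.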 Where a SMILES comes first, the peptide text is derived from it. [ ]: non-standard residue; d: D form. β3hI = CC[CH](C)[CH](N)CC(=O)O Some results are limits rather than exact numbers.

As for `COc1ccc([C@H]2CC(=O)NCCCCN2)cc1`, the TGI with MOLT-4 leukemia, in the assay on NCI-H23 lung, in the assay on OVCAR-5 ovarian, with LXFL 529 NSCLC, in the assay with NCI-H226 lung and with SF-539 CNS was over 100 µM throughout. Further, the TGI with RPMI-8226 leukemia, in the assay on KM20L2 colon and in the assay with M19-MEL melanoma was over 100 µM throughout.

With `CC(=O)O[C@H]1C(=O)[C@@]2(C)C(C(OC(=O)c3ccccc3)[C@]3(O)CC(OC(=O)C(O)C(NC(=O)c4ccc(C)cc4)c4ccccc4)C(C)=C1C3(C)C)[C@]1(OC(C)=O)CO[C@@H]1C[C@@H]2O` (stereo partly specified), the TGI was 3.35 µM with HL-60(TB) leukemia; 7.39 µM in the assay on MOLT-4 leukemia; over 25 µM in the assay on NCI-H23 lung; 3.98 µM with OVCAR-5 ovarian; over 25 µM in the assay with LXFL 529 NSCLC; 0.0119 µM in the assay on SF-539 CNS. In addition, the TGI in the assay on RPMI-8226 leukemia was determined as 6.77 µM; in the assay with M19-MEL melanoma it was 4.23 µM.

On to `CN(C)c1nc(-c2ccccc2)c(C(=O)c2c[nH]c3ccccc23)s1`, for which the TGI in the assay on HL-60(TB) leukemia was 16.5 µM; in the assay with PC-3 prostate it was over 100 µM; with MOLT-4 leukemia it was over 82.6 µM; in the assay on NCI/ADR-RES ovarian it was over 100 µM; in the assay with NCI-H23 lung, over 100 µM; in the assay on DU-145 prostate it was over 100 µM. Moreover, the TGI with OVCAR-5 ovarian was over 100 µM; with NCI-H226 lung it was over 100 µM; in the assay on MDA-MB-435 it was over 31.1 µM; in the assay on SF-539 CNS it was over 100 µM; in the assay on RPMI-8226 leukemia, 32 µM.

Turning to `COc1ccc(/C=C/C(=O)N[C@@H]2C(=O)N3[C@@H]2SC(C)(C)[C@@H]3C(=O)O)cc1`, the TGI with HL-60(TB) leukemia, in the assay with PC-3 prostate, in the assay on MOLT-4 leukemia, in the assay on NCI/ADR-RES ovarian, with NCI-H23 lung and in the assay on DU-145 prostate was over 100 µM throughout. For the same molecule, the TGI in the assay on OVCAR-5 ovarian, with NCI-H226 lung, in the assay with MDA-MB-435, with SF-539 CNS and in the assay with RPMI-8226 leukemia was over 100 µM each time.

Turning to `O=C(OCC1OC(c2nn[nH]n2)C(OC(=O)c2ccccc2)C1OC(=O)c1ccccc1)c1ccccc1` (stereo unspecified), the TGI with HL-60(TB) leukemia, with PC-3 prostate, in the assay on MOLT-4 leukemia, in the assay with NCI/ADR-RES ovarian, with NCI-H23 lung and with DU-145 prostate was over 100 µM throughout. The TGI in the assay on OVCAR-5 ovarian, in the assay with NCI-H226 lung, in the assay with MDA-MB-435, in the assay on SF-539 CNS and in the assay on RPMI-8226 leukemia was over 100 µM throughout.

For the molecule `CCOC(=O)CCC(NC(=O)c1ccc(Nc2nc3ccccc3nc2-c2cccs2)cc1)C(=O)OCC` (stereo unspecified), the TGI in the assay with HL-60(TB) leukemia, in the assay with PC-3 prostate, in the assay with MOLT-4 leukemia, in the assay on NCI/ADR-RES ovarian, in the assay on NCI-H23 lung and in the assay on DU-145 prostate was over 100 µM each time. For the same molecule, the TGI in the assay on OVCAR-5 ovarian, in the assay with NCI-H226 lung, in the assay on MDA-MB-435, in the assay on SF-539 CNS and in the assay with RPMI-8226 leukemia was over 100 µM throughout.

In the case of `N#CC1=C(N)OC(c2ccc([N+](=O)[O-])cc2)C1(C#N)C#N` (stereo unspecified), the TGI in the assay on HL-60(TB) leukemia was 7.84 µM; in the assay with PC-3 prostate, 34.7 µM; in the assay with MOLT-4 leukemia, 63.3 µM; in the assay on NCI/ADR-RES ovarian, 51.7 µM; in the assay on NCI-H23 lung, 32.7 µM; in the assay on DU-145 prostate, 32.1 µM. Moreover, the TGI in the assay with OVCAR-5 ovarian is 41.8 µM; with NCI-H226 lung, 41.5 µM; in the assay on MDA-MB-435, over 50.4 µM; in the assay with SF-539 CNS, 32.1 µM; in the assay on RPMI-8226 leukemia, 18.7 µM.

On to `CCC(C)C(CC(=O)N1CCCC1C(=O)NC(C(=O)NC(C(=O)NCC(=O)NC(CC(N)=O)C(=O)NC(C(=O)NC(C(=O)NC(CCCCN)C(N)=O)C(C)CC)C(C)CC)C(C)C)C(C)CC)NC(=O)C(N)C(C)CC` (stereo not drawn) (H-I[β3hI]PIVGNIIK-NH2; configuration not given here), for which the TGI in the assay with HL-60(TB) leukemia, in the assay with PC-3 prostate, in the assay with MOLT-4 leukemia, in the assay with NCI/ADR-RES ovarian, in the assay on NCI-H23 lung and in the assay with DU-145 prostate was over 50 µM throughout. Further, the TGI with OVCAR-5 ovarian, in the assay with NCI-H226 lung, in the assay on MDA-MB-435, in the assay on SF-539 CNS and in the assay on RPMI-8226 leukemia was over 50 µM each time.

Consider `Cc1[nH]c(=O)nc(NCCNCCO)c1C(=O)Nc1c2ccccc2nc2ccccc12`, for which the TGI in the assay on HL-60(TB) leukemia, in the assay on PC-3 prostate, with MOLT-4 leukemia, in the assay with NCI/ADR-RES ovarian, in the assay with NCI-H23 lung and with DU-145 prostate was over 100 µM each time. Moreover, the TGI with OVCAR-5 ovarian, in the assay on NCI-H226 lung, with MDA-MB-435, in the assay with SF-539 CNS and in the assay on RPMI-8226 leukemia was over 100 µM in each case.

Regarding `CC(C)NC(=O)OCCN=C1c2ccccc2CCc2ccccc21`, the TGI is 45.7 µM in the assay on HL-60(TB) leukemia; 62.4 µM in the assay on PC-3 prostate; 39.7 µM in the assay with MOLT-4 leukemia; 99.5 µM in the assay on NCI/ADR-RES ovarian; over 100 µM in the assay with NCI-H23 lung; 88.9 µM in the assay with DU-145 prostate. The TGI is 82.9 µM with OVCAR-5 ovarian; 60.5 µM in the assay on NCI-H226 lung; 55.1 µM in the assay on MDA-MB-435; 41.5 µM in the assay with SF-539 CNS; 43.2 µM in the assay on RPMI-8226 leukemia.

With `CN(C)c1ccc(/C=C(\NC(=O)c2ccccc2)C(=O)NC(CCC(=O)O)C(=O)O)cc1` (stereo unspecified), the TGI in the assay with HL-60(TB) leukemia, in the assay with PC-3 prostate, with MOLT-4 leukemia, in the assay on NCI/ADR-RES ovarian, in the assay on NCI-H23 lung and with DU-145 prostate was over 100 µM in each case. For the same molecule, the TGI with OVCAR-5 ovarian, with NCI-H226 lung, in the assay on MDA-MB-435, with SF-539 CNS and in the assay with RPMI-8226 leukemia was over 100 µM in each case.

As for `COC(=O)[C@]1(C)CCC[C@@]2(C)C1CCC1=CC3(C(C)C)CCC12OO3` (stereo partly specified), the TGI with HL-60(TB) leukemia is 37.8 µM; in the assay on MOLT-4 leukemia, over 100 µM; in the assay with NCI-H23 lung, over 100 µM; in the assay with OVCAR-5 ovarian it was over 100 µM; in the assay with LXFL 529 NSCLC, over 100 µM; in the assay on NCI-H226 lung it was over 100 µM. For the same molecule, the TGI with SF-539 CNS, in the assay on RPMI-8226 leukemia, in the assay with KM20L2 colon and in the assay on M19-MEL melanoma was over 100 µM in each case.
